These results are taken from patent publication US20100217003A1, “1,2,3,4-TETRAHYDROISOQUINOLINE DERIVATIVES HAVING EFFECTS OF PREVENTING AND TREATING DEGENERATIVE AND INFLAMMATORY DISEASES” (priority 2006, published 2010).

One data set has as its system GTPCH mRNA. In words: Expression of GTPCH genes in LPS-stimulated BV-2 cells (RT-PCR). The class given is cell-based, mouse. The procedure:
(§1) RT-PCR for GTPCH, iNOS, TNF-α, IL-1β and COX-2
(§2) 5 ? each of total RNA samples isolated from BV-2 cells were subjected to reverse-transcription (RT), and then polymerase chain reaction (PCR) for 30 cycles under the conditions of 94° C. for 30 seconds, 60° C. for 40 seconds and 72° C. for one minute. Primers used in the PCR were as follows: iNOS (forward, ATGTCCGAAG-CAAACATCAC; reverse, TAATGTC CAGGAAGTAGGTG), TNF-α (forward, CA-[…] reverse, CAGAGCAATGACTC-CAAAGTAGACCT), IL-1β (forward, […]; reverse, CAGGACAGGTAT AGATTCTTTCCTTT), COX-2 (forward, […]; reverse, […]), GTPCH (forward, GGATACCAGGAGACCAT CTCA; reverse, TAGCATGGTGC-TAGTGACAGT). RT-PCR for B2M was simultaneously performed as internal control. The PCR products were subjected to electrophoresis in a 1.5% agarose gel, thereby confirming the presence of a desired size of single band.
GTP cyclohydrolase I (GTPCH) is a rate-limiting enzyme in the synthesis of tetrahydrobiopterin (BH4) which is essential for iNOS catalysis. Accordingly, the down regulation of GTPCH may lower NO production. The assay was performed to determine whether EHMTIQ (11a) affects the expression of GTPCH genes induced by LPS. The LPS-stimulated BV-2 cell samples were treated with various concentrations of EHMTIQ (11a) and the expression of GTPCH genes was estimated by RT-PCR. The results are illustrated in FIG. 7.

Another data set concerns SK-N-BE(2)C cells. In words: Protective effect against neuron death due to substances released from activated microglial cells (LDH). The data set is classed as cell-based. The settings on record: culture medium from 50 EHMTIQ + LPS-treated BV-2 cells. The procedure:
Measurement of Lactate Dehydrogenase (LDH) Activity
0.26 mM NADH, 2.87 mM sodium pyruvate and 100 mM potassium phosphate buffer (pH 7.4) were added to cell culture medium (50 ? ) to make a total volume of 200 ? , and then cultured at RT. The resultant NAD^+ was measured at 340 nm for 5 minutes at 2-second intervals using a microplate spectrophotometer (SPECTRA MAX 340 pc; Molecular Devices, Menlo Park, Calif., USA).
BV-2 microglial cells were planted in a 24-well Petri dish at a density of 2.5×10^5 cells/ml. After an overnight culture, the cells were treated with […] lipopolysaccharide and EHMTIQ (11a) and then cultured for 12 more hours. At the same time, SK-N-BE(2)C cells were planted in a 24-well Petri dish at 0.5×10^5 cells/ml and cultured for 24 hours. The culture medium for SK-N-BE(2) C cells was removed and the culture medium for BV-2 was added thereto. After 24 hours, the death rate of SK-N-BE(2)C cells was measured using LDH.
The assay was performed to determine whether EHMTIQ (11a) protects a dopaminergic cell from injuries due to inflammatory substances released from an activated microglial cell. SK-N-BE(2)C cells were transferred to a culture medium containing substances released from LPS-stimulated BV-2 cells, and the cell death rate was measured by activity of LDH contained in the culture medium and compared with that in the EHMTIQ (11a)-treated BV-2 culture medium.

The next data set relates to iNOS mRNA. The data set can be described thus: Expression of iNOS genes in LPS-stimulated BV-2 cells (RT-PCR). The data set is classed as cell-based, mouse. As to the method:
as §1, §2
The assay was performed to determine whether EHMTIQ (11a) affects the expression of iNOS genes. LPS-stimulated BV-2 cell samples were treated with various concentrations of EHMTIQ (11a), and the expression of iNOS gene was estimated by RT-PCR. The results are illustrated in FIG. 6.

A short description of data set [1]: Free-radical scavenging activity (DPPH). The settings on record: various concentrations. The procedure: Measurement of Free-Radical Scavenging Activity
Antioxidant activity was evaluated based on scavenging activity of 2,2-diphenyl-1-picrylhydrazyl (DPPH) radical. DPPH was dissolved in 80% methanol to make a final concentration of 100 ? . 8 ? of EHMTIQ (11a) dissolved in dimethyl sulfoxide reacted with 232 ? of DPPH radical solution. The reaction mixture was incubated for 25 minutes at RT, and then the absorbance of DPPH was measured at 517 nm using a SpectraMax GEMINI XS fluorescence spectrophotometer (Molecular Devices, Sunnyvale, Calif., USA).
Free radicals produced by an activated microglial cell cause oxidative stress and structural transformation in protein, nucleic acid and lipids of a neuron, which lead to cell injury. Accordingly, the assay was performed to determine whether EHMTIQ (11a) has free radical scavenging activity.
For orientation: DPPH is a stable violet radical that fades when it is reduced.

The next data set deals with IL-1β mRNA. The data set can be described thus: Expression of IL-1β genes in LPS-stimulated BV-2 cells (RT-PCR). The data set is classed as cell-based, mouse. As to the method:
as §1, §2
The assay was performed to investigate whether EHMTIQ (11a) affects IL-β production in an activated microglial cell. LPS-stimulated BV-2 cell smaples were treated with various concentrations of EHMTIQ (11a) and the expression of IL-1β genes was estimated by RT-PCR. The results are illustrated in FIG. 4.

The test system of data set [2] is BV-2 cell. In words: Cytotoxicity of single treatment in BV-2 cells. The data set is classed as cell-based, mouse. The note with it: single treatment (not illustrated).
Data set [3] relates to BV-2 cell. In words: Inhibitory effect on NO production in LPS-stimulated BV-2 microglial cells (Griess). The data set is classed as cell-based, mouse. The procedure:
BV-2 microglial cell line, CATH.a neuron line and SK-N-BE(2)C neuron line were cultured in Dulbecco's modified Eagle's medium (DMEM) supplemented with 10% bovine serum, […] penicillin, and 10 ? /ml streptomycin at 37° C. in an atmosphere of 5% CO2 and 95% air. The cells were planted on a polystyrene petri dish at the following densities: BV-2 (2.5×10^5 cells/24 well or 2.6×10^6 cells/60 mm dish; SK− N-BE(2)C (1.5×10^5 cells/24 well); and CATH.a (2.4×10^4 cells/96 well).
Measurement of NO Production
200 ? of cell culture medium fraction and 100 ? of Griess reagent (2.5% […], 1% sulfanilamide and 0.1% naphthylethylenediamine dihydrochloride) were mixed in a 96-well microtiter plate, and the absorbance of a sample was read at 540 nm using a microtiter plate reader (multi-well spectrophotometer). The concentration of nitrite was calculated using a standard curve for sodium nitrite.
To determine whether EHMTIQ (11a) inhibits NO production in an activated […] cell, a mouse microglial cell line, BV-2, was used in this assay. Lipopolysaccharide (LPS)-stimulated BV-2 cell samples were treated with various concentrations of EHMTIQ (11a) and then the NO level of a sample was measured. The results are illustrated in FIG. 1.

Usually IC50 stands for the concentration at which inhibition is half-maximal. Read a high IC50 as lower potency.

Consider `CCC(=O)N1CCc2cc(OC)c(O)cc2C1` [EHMTIQ (11a), 2-ethylcarbonyl-7-hydroxy-6-methoxy-1,2,3,4-tetrahydroisoquinoline], for which the “gene expression of GTPCH” value in the data set with GTPCH mRNA (2.5 (unit as image)) is 17±1%; with GTPCH mRNA (100 (unit as image)), 75±1%. Besides, the “cell injury rate of SK-N-BE(2)C cells” value with SK-N-BE(2)C cells is “reduced”. The “expression of iNOS genes compared to the control only treated with LPS” value was 82±1% in the data set on iNOS mRNA (5 (unit as image)) and 24±1% in the data set with iNOS mRNA (100 (unit as image)). Besides, the “scavenging activity of DPPH radicals” value in data set [1] is reported as “proportional to the concentration”. For the same compound, the results for the “mRNA level of IL-1β” value with IL-1β mRNA (2.5 (unit as image)) and in the data set on IL-1β mRNA (100 (unit as image)) were 74±0.7% and “significant decrease in the LPS effect”, respectively. In addition, the cytotoxicity entry with BV-2 cell [2] was “did not exhibit any cytotoxicity”. In the data set with BV-2 cell [3] (5 (concentration unit printed as image)), the “NO production induced by LPS, compared with the control not treated with EHMTIQ” value is 63±4%. For the same compound, in the data set on BV-2 cell [3] (100 (concentration unit printed as image)), the NO production result is on record as “inhibit NO production to the control level”. This compound had an IC50 with BV-2 cell [3] (Mus musculus, unit printed as image) of 2810 nM.
